# In publication PMC4139061, “Structural basis of nucleoside and nucleoside drug selectivity by concentrative nucleoside transporters” (eLife, 2014):
# Values joined by “and” are separate entries in the source; they are usually repeats but may differ in a detail not shown here. Identical values can stand only once.
# Experiments:
# vcCNT [1] = biological target: T1, vcCNT (Vibrio cholerae, UniProt Q9KPL5); test: biochemical; assay type: binding
# Description: The fluorescence anisotropy after each addition was measured. Each titration was performed at least three times. The data for the three titrations were simultaneously fit to a one-site competitive binding model based off of Wang's method ([Wang, 1995]) using nonlinear least-squares analysis in GraphPad Prism to obtain a dissociation constant and standard error.
# hCNTs = settings: cited from earlier work
# hCNT3 = biological target: T2, hCNT3 (Homo sapiens, UniProt Q9HAS3); test: two-electrode voltage-clamp of Na+ currents / total charge in Xenopus oocytes expressing hCNT3; assay type: cell-based
# T2 sequence (Q9HAS3 1-691): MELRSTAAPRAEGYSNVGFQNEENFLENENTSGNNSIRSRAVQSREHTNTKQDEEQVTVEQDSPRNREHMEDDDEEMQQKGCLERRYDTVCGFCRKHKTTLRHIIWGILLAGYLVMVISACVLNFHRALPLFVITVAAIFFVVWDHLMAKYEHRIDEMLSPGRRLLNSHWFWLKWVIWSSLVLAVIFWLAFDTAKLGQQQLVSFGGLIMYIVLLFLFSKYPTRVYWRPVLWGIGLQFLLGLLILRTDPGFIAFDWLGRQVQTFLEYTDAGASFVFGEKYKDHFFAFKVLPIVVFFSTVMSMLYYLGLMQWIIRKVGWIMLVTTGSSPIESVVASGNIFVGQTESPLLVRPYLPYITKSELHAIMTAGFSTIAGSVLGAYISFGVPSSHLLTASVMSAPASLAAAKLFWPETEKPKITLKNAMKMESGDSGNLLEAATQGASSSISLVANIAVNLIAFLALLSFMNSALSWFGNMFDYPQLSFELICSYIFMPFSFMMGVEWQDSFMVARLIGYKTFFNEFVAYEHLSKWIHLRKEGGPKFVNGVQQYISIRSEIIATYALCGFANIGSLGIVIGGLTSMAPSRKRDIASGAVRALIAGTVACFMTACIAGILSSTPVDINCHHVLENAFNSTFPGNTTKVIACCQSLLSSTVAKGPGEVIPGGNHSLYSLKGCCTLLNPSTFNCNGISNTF
# Excerpt: (§1) To detect nucleoside transport by hCNTs, we turned to two-electrode voltage-clamp electrophysiological recording. Because hCNTs are Na^+-nucleoside symporters, one can measure the current generated by the Na^+ transport that is coupled with nucleoside transport. We injected Xenopus oocytes with mRNA coding for each of the hCNTs and measured inward Na^+ currents elicited by the addition of different nucleosides to the extracellular side.
# (§2) The genes coding for the three hCNTs and vcCNT were cloned into a pGEM-HE vector. Plasmids were linearized using either SphI or NheI, and mRNA was transcribed using the mMESSAGE mMACHINE T7 Transcription Kit (Ambion, Grand Island, NY). Defolliculated Xenopus laevis oocytes were purchased from Ecocyte Bioscience (Austin, TX). Individual oocytes were injected with 40 ng of mRNA using a 10-μl microdispenser (Drummond Scientific, Broomall, PA) fitted with a tapered glass pipette tip and incubated at 17 °C for 4–5 days in ND96 buffer (96 mM NaCl, 2 mM KCl, 1 mM MgCl2, 1.8 mM CaCl2, and 5 mM HEPES pH 7.5) with 0.1% penicillin and streptomycin before recording.
# (§3) The oocyte-recording chamber was gravity-perfused with ND96 buffer at a rate of 2 ml/min. Membrane currents were measured using an Oocyte Clamp (OC-725C; Warner Instruments, Hamden, CT). Individual oocytes were penetrated with two microelectrodes filled with 3 M KCl (0.5–1.0 MΩ). All electrophysiological experiments were conducted at room temperature. The OC-725C Oocyte Clamp was computer-interfaced via an Axon Digidata 1550 and controlled by Axoscope software (Molecular Devices, Sunnyvale, CA). The current signals were filtered at 20 Hz and sampled at intervals of 20 ms. The signals were filtered at 0.5 Hz by use of pCLAMP 10.4 software for data presentation. […] Cells were discarded if resting membrane potentials were unstable or more positive than −30 mV. Oocyte membrane potentials were clamped at −90 mV for holding potentials to measure transporter-generated currents. All data are shown as means ± SEM.
# hCNT1 = biological target: T3, hCNT1 (Homo sapiens, UniProt O00337); test: two-electrode voltage-clamp of Na+ currents / total charge in Xenopus oocytes expressing hCNT1; assay type: cell-based; settings: 200 μM nucleoside; hCNT1-expressing Xenopus oocytes; mean of Exp. 1-11
# T3 sequence (O00337 1-649): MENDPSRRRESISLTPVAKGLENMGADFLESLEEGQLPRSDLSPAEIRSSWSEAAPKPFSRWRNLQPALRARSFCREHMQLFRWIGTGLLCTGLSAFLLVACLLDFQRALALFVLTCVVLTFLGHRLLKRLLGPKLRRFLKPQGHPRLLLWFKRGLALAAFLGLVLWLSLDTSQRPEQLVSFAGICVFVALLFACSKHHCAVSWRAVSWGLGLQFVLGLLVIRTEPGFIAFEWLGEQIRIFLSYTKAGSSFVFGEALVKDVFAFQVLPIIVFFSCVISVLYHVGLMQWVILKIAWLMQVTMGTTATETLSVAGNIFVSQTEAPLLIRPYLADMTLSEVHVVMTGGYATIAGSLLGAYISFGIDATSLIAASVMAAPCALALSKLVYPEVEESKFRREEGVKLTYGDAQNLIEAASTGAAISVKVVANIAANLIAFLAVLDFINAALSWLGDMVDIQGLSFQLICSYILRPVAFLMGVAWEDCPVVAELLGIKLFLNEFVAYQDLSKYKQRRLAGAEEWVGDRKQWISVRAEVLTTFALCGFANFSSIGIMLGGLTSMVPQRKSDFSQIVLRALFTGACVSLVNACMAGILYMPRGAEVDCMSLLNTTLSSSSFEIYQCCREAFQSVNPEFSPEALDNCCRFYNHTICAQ
# Excerpt: as §1, §2, §3
# hCNT2 = hCNT2 (Homo sapiens, UniProt O43868); test: two-electrode voltage-clamp of Na+ currents in Xenopus oocytes expressing hCNT2; assay type: cell-based; settings: data not shown
# Excerpt: as §1, §2
# The oocyte-recording chamber was gravity-perfused with ND96 buffer at a rate of 2 ml/min. Membrane currents were measured using an Oocyte Clamp (OC-725C; Warner Instruments, Hamden, CT). Individual oocytes were penetrated with two microelectrodes filled with 3 M KCl (0.5–1.0 MΩ). […]
# hCNT3 (375L/446V) = hCNT3 (375L/446V) (Homo sapiens, UniProt Q9HAS3, L446V/V375L); test: two-electrode voltage-clamp total charge in Xenopus oocytes expressing hCNT3 (375L/446V); assay type: cell-based; settings: 400 μM nucleoside; hCNT3 (375L/446V)-expressing Xenopus oocytes; mean of Exp. 1-11
# Excerpt: In the paradigm of the alternating-access mechanism of sodium-coupled symporters ([Krishnamurthy et al., 2009]), substrate release is achieved by the transition from the inward-facing occluded to the inward-facing open state (Figure 6C).
# (§4) Figure 6. […] (A) Model of hCNT3 nucleo-pocket. […] (B) Model of hCNT1 nucleo-pocket. […] (C) Hypothetical alternating-access mechanism of vcCNT. A cartoon representation of the different conformational states along the transport cycle is depicted. The transport domain (including HP1, HP2, TM4b, and TM7b) and TM6 are shown as cylinders. […] The nucleo-pocket in the inward-occluded conformation (bottom right) is located between TM6 and TM4 and is marked with a green star. The inward-occluded conformation is derived from the crystal structures of vcCNT. All other conformations are purely hypothetical. The transition between inward- and outward-facing conformations has been proposed to be achieved by a rigid-body movement of the transport domain across TM6 ([Johnson et al., 2012]). Extracellular and intracellular gating likely involves slight rearrangements of HP2/TM4b and HP1/TM7b, respectively. […] See Figure 6—source data 1 for total charge source data. DOI: http://dx.doi.org/10.7554/eLife.03604.024 Figure 6—source data 1. Total charge data. Total charge transported (μC) was calculated as the area under the curve of the current trace after application of the indicated nucleoside to hCNT-expressing Xenopus oocytes. Each row represents a separate experiment done using a different oocyte. The ratios of the total charge transported for the nucleosides are shown in the last columns.
# The genes coding for the three hCNTs and vcCNT were cloned into a pGEM-HE vector. Plasmids were linearized using either SphI or NheI, and mRNA was transcribed using the mMESSAGE mMACHINE T7 Transcription Kit (Ambion, Grand Island, NY). […]
# The oocyte-recording chamber was gravity-perfused with ND96 buffer at a rate of 2 ml/min. Membrane currents were measured using an Oocyte Clamp (OC-725C; Warner Instruments, Hamden, CT). […]
# hCNT1 (353V/424L) = hCNT1 (353V/424L) (Homo sapiens, UniProt O00337, L353V/V424L); test: two-electrode voltage-clamp total charge in Xenopus oocytes expressing hCNT1 (353V/424L); assay type: cell-based; settings: 400 μM nucleoside, hCNT1 (353V/424L)-expressing Xenopus oocytes
# Excerpt: as §4, §2
# The oocyte-recording chamber was gravity-perfused with ND96 buffer at a rate of 2 ml/min. Membrane currents were measured using an Oocyte Clamp (OC-725C; Warner Instruments, Hamden, CT). Individual oocytes were penetrated with two microelectrodes filled with 3 M KCl (0.5–1.0 MΩ). All electrophysiological experiments were conducted at room temperature. The OC-725C Oocyte Clamp was computer-interfaced via an Axon Digidata 1550 and controlled by Axoscope software (Molecular Devices, Sunnyvale, CA). The current signals were filtered at 20 Hz and sampled at intervals of 20 ms.
# vcCNT [2] = biological target: T1, vcCNT; test: biochemical; assay type: binding; settings: KD
# Chain of hCNT1 (353V/424L) (O00337 whole entry L353V/V424L): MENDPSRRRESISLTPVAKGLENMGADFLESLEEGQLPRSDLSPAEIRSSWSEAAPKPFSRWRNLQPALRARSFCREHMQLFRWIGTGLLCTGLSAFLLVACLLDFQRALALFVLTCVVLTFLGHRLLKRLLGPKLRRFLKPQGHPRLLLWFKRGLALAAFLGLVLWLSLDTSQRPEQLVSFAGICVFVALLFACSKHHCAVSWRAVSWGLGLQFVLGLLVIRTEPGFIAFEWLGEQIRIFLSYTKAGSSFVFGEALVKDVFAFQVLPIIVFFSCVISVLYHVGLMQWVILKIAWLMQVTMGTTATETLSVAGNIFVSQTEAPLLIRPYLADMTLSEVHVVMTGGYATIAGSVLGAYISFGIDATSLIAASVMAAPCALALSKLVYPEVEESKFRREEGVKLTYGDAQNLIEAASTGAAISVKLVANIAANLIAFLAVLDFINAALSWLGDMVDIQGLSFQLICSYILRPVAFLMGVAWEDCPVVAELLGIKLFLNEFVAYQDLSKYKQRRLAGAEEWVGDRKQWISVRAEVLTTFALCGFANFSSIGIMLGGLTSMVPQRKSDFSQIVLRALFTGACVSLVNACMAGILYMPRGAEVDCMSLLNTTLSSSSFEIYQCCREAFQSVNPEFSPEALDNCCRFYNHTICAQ
# T1 sequence (Q9KPL5 entry or part of it): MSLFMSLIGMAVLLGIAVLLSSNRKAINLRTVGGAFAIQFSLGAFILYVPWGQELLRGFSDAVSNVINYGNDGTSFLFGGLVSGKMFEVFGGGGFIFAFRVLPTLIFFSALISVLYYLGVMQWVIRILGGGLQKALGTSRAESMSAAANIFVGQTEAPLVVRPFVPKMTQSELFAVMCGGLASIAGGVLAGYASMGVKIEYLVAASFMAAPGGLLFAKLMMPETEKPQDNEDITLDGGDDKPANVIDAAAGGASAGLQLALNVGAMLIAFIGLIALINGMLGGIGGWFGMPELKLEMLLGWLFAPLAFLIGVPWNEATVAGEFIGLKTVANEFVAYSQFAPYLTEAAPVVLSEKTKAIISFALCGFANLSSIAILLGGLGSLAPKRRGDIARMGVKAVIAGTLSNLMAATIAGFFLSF
# Chain of hCNT3 (375L/446V) (Q9HAS3 whole entry V375L/L446V): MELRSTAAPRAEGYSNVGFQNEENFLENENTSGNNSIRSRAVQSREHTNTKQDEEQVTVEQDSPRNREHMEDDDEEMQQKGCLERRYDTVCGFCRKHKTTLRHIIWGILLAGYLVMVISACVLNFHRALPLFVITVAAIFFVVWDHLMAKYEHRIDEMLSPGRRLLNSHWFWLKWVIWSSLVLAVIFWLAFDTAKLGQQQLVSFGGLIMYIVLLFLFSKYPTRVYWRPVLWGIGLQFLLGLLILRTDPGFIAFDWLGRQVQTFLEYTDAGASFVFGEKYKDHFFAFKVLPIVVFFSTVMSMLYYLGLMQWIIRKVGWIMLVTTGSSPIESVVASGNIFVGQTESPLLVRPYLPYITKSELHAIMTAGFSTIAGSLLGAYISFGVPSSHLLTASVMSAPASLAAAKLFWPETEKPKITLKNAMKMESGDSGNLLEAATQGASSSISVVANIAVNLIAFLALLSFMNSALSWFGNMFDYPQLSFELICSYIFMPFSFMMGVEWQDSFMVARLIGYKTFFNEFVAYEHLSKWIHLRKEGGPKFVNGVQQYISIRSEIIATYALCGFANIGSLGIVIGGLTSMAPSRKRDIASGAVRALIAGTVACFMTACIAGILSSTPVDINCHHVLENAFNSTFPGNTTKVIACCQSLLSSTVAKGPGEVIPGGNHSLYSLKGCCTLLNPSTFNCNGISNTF
# Chain of hCNT2 (O43868 whole entry): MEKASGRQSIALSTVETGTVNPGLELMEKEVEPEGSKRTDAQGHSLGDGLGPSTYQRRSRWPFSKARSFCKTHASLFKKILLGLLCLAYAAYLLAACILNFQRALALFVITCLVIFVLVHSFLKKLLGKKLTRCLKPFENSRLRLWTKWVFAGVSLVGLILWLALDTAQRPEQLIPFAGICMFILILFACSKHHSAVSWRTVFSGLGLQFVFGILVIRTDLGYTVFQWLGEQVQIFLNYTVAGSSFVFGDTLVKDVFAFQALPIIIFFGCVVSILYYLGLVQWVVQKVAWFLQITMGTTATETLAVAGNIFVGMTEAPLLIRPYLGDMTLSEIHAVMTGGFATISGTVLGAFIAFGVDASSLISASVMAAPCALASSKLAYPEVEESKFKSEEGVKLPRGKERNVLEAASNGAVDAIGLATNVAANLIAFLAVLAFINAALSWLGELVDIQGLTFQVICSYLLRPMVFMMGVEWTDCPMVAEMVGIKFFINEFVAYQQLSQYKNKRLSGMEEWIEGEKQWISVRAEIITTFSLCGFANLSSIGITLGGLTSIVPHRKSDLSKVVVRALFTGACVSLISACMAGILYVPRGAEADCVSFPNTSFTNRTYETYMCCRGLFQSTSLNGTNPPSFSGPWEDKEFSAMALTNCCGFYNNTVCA
smiles,measurement,setting,value
O=c1ccn([C@H]2C[C@H](O)[C@@H](CO)O2)c(=O)[nH]1 [2′-deoxyuridine],Kd,vcCNT [1],170 ± 10 µM
Cn1c(=O)ccn([C@@H]2O[C@H](CO)[C@@H](O)[C@H]2O)c1=O [3-methyluridine],Kd,vcCNT [1],520 ± 80 µM
O=c1ccn([C@@H]2O[C@H](CO)C[C@H]2O)c(=O)[nH]1 [3′-deoxyuridine],Kd,vcCNT [1],> 2800 µM
C[C@H]1O[C@@H](n2ccc(=O)[nH]c2=O)[C@H](O)[C@@H]1O [5'-deoxyuridine],Kd,vcCNT [1],> 2800 µM
O=c1[nH]c(=O)n([C@@H]2O[C@H](CO)[C@@H](O)[C@H]2O)cc1Cl [5-chlorouridine],Kd,vcCNT [1],14 ± 1 µM
O=c1[nH]c(=O)n([C@@H]2O[C@H](CO)[C@@H](O)[C@H]2O)cc1F [5-fluorouridine],Kd,vcCNT [1],16 ± 1 µM
same,KD lower than the KD for uridine,"vcCNT [1]; fold, vcCNT",twofold
O=c1[nH]c(=O)n([C@@H]2O[C@H](CO)[C@@H](O)[C@H]2O)cc1I [5-iodouridine],Kd,vcCNT [1],58 ± 5 µM
Cc1cn([C@@H]2O[C@H](CO)[C@@H](O)[C@H]2O)c(=O)[nH]c1=O [5-methyluridine],Kd,vcCNT [1],61 ± 7 µM
Nc1ncnc2c1ncn2[C@@H]1O[C@H](CO)[C@@H](O)[C@H]1O [adenosine],Kd,vcCNT [1],470 ± 100 µM
Nc1ccn([C@@H]2O[C@H](CO)[C@@H](O)[C@@H]2O)c(=O)n1 [cytarabine],binding and transport by hCNTs,"hCNTs; ref Clarke et al., 2006",no significant binding and transport
Nc1ccn([C@@H]2O[C@H](CO)[C@@H](O)C2(F)F)c(=O)n1 [gemcitabine],KD higher than that for cytidine,vcCNT [1],~22 fold
same,"Total charge transported, Mean","hCNT3; 200 μM nucleoside, hCNT3-expressing Xenopus oocytes, mean of Exp. 1-14",7.084 μC
same,Na+ current on addition of nucleoside,"hCNT3; hCNT3-expressing oocytes, 200 μM",induced Na^+ currents
same,"Total charge transported, Mean",hCNT1,0.127 μC
same,transport by hCNT2,hCNT2,transported neither compound
same,"Total charge transported, Mean",hCNT3 (375L/446V),5.697 μC
same,"Total charge transported, Mean",hCNT1 (353V/424L); mean of Exp. 1-8,0.692 μC
same,Total charge transported,"hCNT1 (353V/424L); single oocyte, listed as Gem",0.743 μC and 0.542 μC and 0.572 μC and 0.858 μC and 0.563 μC and 0.586 μC and 0.813 μC
"Cc1cc2cn([C@@H]3O[C@H](CO)[C@@H](O)[C@H]3O)c(=O)nc2[nH]1 [pyrrolo-cytidine, reference compound]",Kd,vcCNT [2],0.9 µM and 0.94 µM
NC(=O)c1ncn([C@@H]2O[C@H](CO)[C@@H](O)[C@H]2O)n1 [ribavirin],Kd,vcCNT [1],1530 µM
O=c1ccn([C@@H]2O[C@H](CO)[C@@H](O)[C@H]2O)c(=O)[nH]1 [uridine],Km,"hCNTs; reported Km values, ref Molina-Arcas et al., 2009",22 to 80 µM
O=c1ncccn1[C@@H]1O[C@H](CO)[C@@H](O)[C@H]1O [zebularine],Kd,vcCNT [1],120 ± 5 µM
same,loss of binding affinity relative to uridine,"vcCNT [1]; fold, vcCNT",threefold
